Assay results reported in PubChem BioAssay AID330 (DTP/NCI, 2004).
Where “and” joins values, the source holds several entries; their conditions need not be identical. Identical values can stand only once. Inconclusive results and toxic doses are left out.

Test system: P388 leukemia ip, CD2F1 mice, survival T/C
Assay: NCI In Vivo Anticancer Drug Screen. Data for tumor model P388 Leukemia (intraperitoneal) in CD2F1 (CDF1) mice
Conditions: endpoint: median survival time, higher = longer survival
Procedure, shortened: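 Mice carrying the transplanted tumor received test compound or vehicle. Survival was recorded in each group, and the value is the treated-group measurement divided by that of the vehicle-treated control group.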

[1] = dose: 12.5 mg/kg/injection, schedule: Q01DX005 (ip), vehicle: saline with Tween-80
[2] = dose: 25.0 mg/kg/injection, schedule: Q01DX005 (ip), vehicle: saline with Tween-80
[3] = dose: 50.0 mg/kg/injection, schedule: Q01DX005 (ip), vehicle: saline with Tween-80
[4] = dose: 50.0 mg/kg/injection, schedule: Q01DX005 (ip), vehicle: saline
[5] = dose: 60.0 mg/kg/injection, schedule: Q01DX005 (ip), vehicle: saline with Tween-80
[6] = dose: 120.0 mg/kg/injection, schedule: Q01DX005 (ip), vehicle: saline with Tween-80
[7] = dose: 240.0 mg/kg/injection, schedule: Q01DX005 (ip), vehicle: saline with Tween-80
[8] = dose: 25.0 mg/kg/injection, schedule: Q01DX009 (ip), vehicle: saline with Tween-80
[9] = dose: 50.0 mg/kg/injection, schedule: Q01DX009 (ip), vehicle: saline with Tween-80
[10] = dose: 100.0 mg/kg/injection, schedule: Q01DX009 (ip), vehicle: saline with Tween-80
[11] = dose: 200.0 mg/kg/injection, schedule: Q01DX009 (ip), vehicle: saline with Tween-80
[12] = dose: 50.0 mg/kg/injection, schedule: Q01DX009 (ip), vehicle: saline
[13] = dose: 100.0 mg/kg/injection, schedule: Q01DX009 (ip), vehicle: saline
[14] = dose: 100.0 mg/kg/injection, schedule: Q01DX005 (ip), vehicle: saline
[15] = dose: 50.0 mg/kg/injection, schedule: Q01DX005 (ip), vehicle: Klucel (hydroxypropylcellulose) (HPC)
[16] = dose: 100.0 mg/kg/injection, schedule: Q01DX005 (ip), vehicle: Klucel (hydroxypropylcellulose) (HPC)
[17] = dose: 200.0 mg/kg/injection, schedule: Q01DX005 (ip), vehicle: Klucel (hydroxypropylcellulose) (HPC)

CC1CN1P(=O)(c1ccccc1)N1CC1C (stereo unspecified)
T/C [1]: 108 % of control
T/C (dose: 12.5 mg/kg/injection, schedule: Q01DX005 (ip), vehicle: saline): 100 % of control
T/C [2]: 100 % of control
T/C (dose: 25.0 mg/kg/injection, schedule: Q01DX005 (ip), vehicle: saline): 95 % of control
T/C [3]: 104 % of control and 97 % of control
T/C [4]: 96 % of control
T/C (dose: 50.0 mg/kg/injection, schedule: Q01DX005 (ip), vehicle: suspension in saline): 105 % of control
T/C (dose: 100.0 mg/kg/injection, schedule: Q01DX005 (ip), vehicle: suspension in saline): 115 % of control

CCOC(=O)Nc1ccc(Cl)cc1C(=O)c1ccccc1
T/C (dose: 45.0 mg/kg/injection, schedule: Q01DX009 (ip), vehicle: saline with Tween-80): 102 % of control
T/C (dose: 90.0 mg/kg/injection, schedule: Q01DX009 (ip), vehicle: saline with Tween-80): 100 % of control
T/C (dose: 180.0 mg/kg/injection, schedule: Q01DX009 (ip), vehicle: saline with Tween-80): 96 % of control

Nc1nc(Cc2ccccc2)c(-c2ccccc2)c(-c2nc(N)nc(Cc3ccccc3)c2-c2ccccc2)n1
T/C [5]: 100 % of control
T/C [6]: 105 % of control
T/C [7]: 99 % of control

COc1ccc(/C=C/C(=O)c2ccc3c(c2)OCO3)cc1OC
T/C (dose: 12.5 mg/kg/injection, schedule: Q01DX009 (ip), vehicle: saline with Tween-80): 98 % of control
T/C [8]: 98 % of control and 100 % of control
T/C [9]: 99 % of control and 101 % of control
T/C [10]: 100 % of control and 94 % of control
T/C [11]: 103 % of control and 93 % of control
T/C (dose: 200.0 mg/kg/injection, schedule: Q04DX003 (ip), vehicle: saline with Tween-80): 109 % of control
T/C (dose: 300.0 mg/kg/injection, schedule: Q01DX009 (ip), vehicle: saline with Tween-80): 93 % of control
T/C (dose: 400.0 mg/kg/injection, schedule: Q01DX009 (ip), vehicle: saline with Tween-80): 100 % of control
T/C (dose: 400.0 mg/kg/injection, schedule: Q04DX003 (ip), vehicle: saline with Tween-80): 109 % of control

O=C(CC(=O)CC(O)(C(F)(F)F)C(F)(F)F)CC(O)(C(F)(F)F)C(F)(F)F
T/C (dose: 1.25 mg/kg/injection, schedule: Q04DX003 (ip), vehicle: saline): 100 % of control
T/C (dose: 2.5 mg/kg/injection, schedule: Q04DX003 (ip), vehicle: saline): 95 % of control

O=S(=O)(CC(O)C(Cl)(Cl)Cl)NNc1ccccc1 (stereo unspecified)
T/C [12]: 99 % of control
T/C [13]: 112 % of control

CCSC(=N)N=Nc1ccc(O)cc1
T/C [8]: 100 % of control
T/C [9]: 99 % of control
T/C [10]: 99 % of control
T/C [11]: 93 % of control

Nc1cc2nnc(-c3ccccc3)c(-c3ccccc3)n2n1
T/C (dose: 25.0 mg/kg/injection, schedule: Q04DX002 (ip), vehicle: saline with Tween-80): 91 % of control
T/C (dose: 50.0 mg/kg/injection, schedule: Q04DX002 (ip), vehicle: saline with Tween-80): 86 % of control

CCN(CC)CCCNc1cc(OC)cc2nc3cc(Cl)ccc3nc12
T/C [4]: 100 % of control
T/C [14]: 106 % of control

CC(C)C1OCN2C(C)CCCC12 (stereo unspecified)
T/C [4]: 105 % of control
T/C [14]: 111 % of control
T/C (dose: 200.0 mg/kg/injection, schedule: Q01DX005 (ip), vehicle: saline): 111 % of control

CCNC1=CC(=O)c2ncccc2C1=O
T/C (dose: 3.13 mg/kg/injection, schedule: Q01DX009 (ip), vehicle: DMSO): 99 % of control
T/C (dose: 6.25 mg/kg/injection, schedule: Q01DX009 (ip), vehicle: DMSO): 100 % of control
T/C (dose: 12.5 mg/kg/injection, schedule: Q01DX009 (ip), vehicle: DMSO): 99 % of control
T/C (dose: 25.0 mg/kg/injection, schedule: Q01DX009 (ip), vehicle: DMSO): 95 % of control

CC1CCC(O)C23OC4C(OC(C)(C)C4C12C)C3=O (stereo unspecified) (tested in a mixture with another compound)
T/C [12]: 96 % of control
T/C [13]: 89 % of control
T/C (dose: 200.0 mg/kg/injection, schedule: Q01DX009 (ip), vehicle: saline): 94 % of control

C#CC(C)(C)NC(=O)NC12CC3CC(CC(C3)C1)C2
T/C (dose: 12.5 mg/kg/injection, schedule: Q01DX001 (ip), vehicle: saline with Tween-80): 94 % of control
T/C (dose: 25.0 mg/kg/injection, schedule: Q01DX001 (ip), vehicle: saline with Tween-80): 86 % of control
T/C (dose: 50.0 mg/kg/injection, schedule: Q01DX001 (ip), vehicle: saline with Tween-80): 89 % of control

CCCCOC1OCN(CCCN(C)C)CC1(C)C (stereo unspecified)
T/C [9]: 108 % of control
T/C [10]: 122 % of control
T/C [11]: 122 % of control

Nc1nc(N)n(N)c(=S)n1
T/C (dose: 50.0 mg/kg/injection, schedule: Q04DX003 (ip), vehicle: saline with Tween-80): 96 % of control
T/C (dose: 100.0 mg/kg/injection, schedule: Q04DX003 (ip), vehicle: saline with Tween-80): 106 % of control

CC(=O)Nc1c(-c2ccccc2)[nH]c2ccccc12
T/C (dose: 100.0 mg/kg/injection, schedule: Q01DX001 (ip), vehicle: saline with Tween-80): 99 % of control

O=C(OC(CCc1ccccc1)C(=O)O)c1ccc([N+](=O)[O-])cc1 (stereo unspecified)
T/C (dose: 75.0 mg/kg/injection, schedule: Q01DX001 (ip), vehicle: Klucel (hydroxypropylcellulose) (HPC)): 111 % of control
T/C (dose: 150.0 mg/kg/injection, schedule: Q01DX001 (ip), vehicle: Klucel (hydroxypropylcellulose) (HPC)): 112 % of control
T/C (dose: 300.0 mg/kg/injection, schedule: Q01DX001 (ip), vehicle: Klucel (hydroxypropylcellulose) (HPC)): 97 % of control

O=C1CN(Cc2ccccc2)CC(=O)N2Cc3ccccc3CN12
T/C [1]: 98 % of control
T/C [2]: 105 % of control
T/C [3]: 102 % of control

CC(C)=C[Si](C)(C)C
T/C [9]: 103 % of control
T/C [10]: 110 % of control
T/C [11]: 103 % of control

O=C(O)CCOc1cccc(OCCC(=O)O)c1
T/C [15]: 102 % of control
T/C [16]: 98 % of control
T/C [17]: 99 % of control

C=CCCCCCCCCC(=O)N1C(=O)C(c2ccccc2)(c2ccccc2)CSC1=S
T/C (dose: 50.0 mg/kg/injection, schedule: Q01DX009 (ip), vehicle: Klucel (hydroxypropylcellulose) (HPC)): 91 % of control
T/C (dose: 100.0 mg/kg/injection, schedule: Q01DX009 (ip), vehicle: Klucel (hydroxypropylcellulose) (HPC)): 92 % of control
T/C (dose: 200.0 mg/kg/injection, schedule: Q01DX009 (ip), vehicle: Klucel (hydroxypropylcellulose) (HPC)): 90 % of control

CCOC(=O)C1=C(C)Nc2cc[nH]c(=O)c2C1c1ccccc1Cl (stereo unspecified)
T/C [5]: 107 % of control
T/C [6]: 103 % of control
T/C [7]: 104 % of control

C[C@]12CCC(=O)N[C@@H]1CC[C@@H]1[C@@H]2CC[C@]2(C)[C@@H](OC(=O)COc3ccc(N(CCCl)CCCl)cc3)CC[C@@H]12
T/C (dose: 2.5 mg/kg/injection, schedule: Q01DX005 (ip), vehicle: saline with Tween-80): 116 % of control
T/C (dose: 10.0 mg/kg/injection, schedule: Q01DX005 (ip), vehicle: saline with Tween-80): 155 % of control
T/C (dose: 15.0 mg/kg/injection, schedule: Q01DX005 (ip), vehicle: saline with Tween-80): 181 % of control
T/C (dose: 20.0 mg/kg/injection, schedule: Q01DX005 (ip), vehicle: saline with Tween-80): 192 % of control
T/C (dose: 30.0 mg/kg/injection, schedule: Q01DX005 (ip), vehicle: saline with Tween-80): 220 % of control

O=C(NC(CCS(=O)(=O)F)C(=O)OCc1ccccc1)OCc1ccccc1 (stereo unspecified)
T/C (dose: 12.5 mg/kg/injection, schedule: Q01DX009 (ip), vehicle: other): 102 % of control
T/C (dose: 25.0 mg/kg/injection, schedule: Q01DX009 (ip), vehicle: other): 97 % of control
T/C (dose: 50.0 mg/kg/injection, schedule: Q01DX009 (ip), vehicle: other): 100 % of control
T/C (dose: 100.0 mg/kg/injection, schedule: Q01DX009 (ip), vehicle: other): 102 % of control
T/C (dose: 200.0 mg/kg/injection, schedule: Q01DX009 (ip), vehicle: other): 105 % of control

O=C1C=C2CCCCCCCCC(C1)C2 (stereo unspecified)
T/C [15]: 99 % of control
T/C [16]: 96 % of control
T/C [17]: 89 % of control

CN(C)c1ccc(/C=C/C(=O)c2ccc(Nc3ccnc4cc(Cl)ccc34)cc2)cc1
T/C (dose: 400.0 mg/kg/injection, schedule: Q04DX002 (ip), vehicle: saline with Tween-80): 93 % of control
